In US20150283127A1, “SAQUINAVIR-NO FOR IMMUNOMODULATION” (ONCONOX APS, priority 2012, published 2015):
Marks after values point to notes of the source that are not given here.

Legend:
murine CD4+ cells = assay: Cytokine generation (ELISA) in murine CD4+ cells stimulated with anti-CD3 and anti-CD28; format: cell-based, mouse; settings: for Influence on IL-10 / TNF release: CD4+ cells
Text: (§1) Experimental animals (C57BL/6 mice, BALB/c mice and Dark Agouti rats) were obtained from the Animal House Facility of the Institute for Biological Research “Sinisa Stanković”, Belgrade, Serbia. Spleen cells (SPC) were isolated from murine spleens and lymph node cells (LNC) were obtained from rat cervical lymph nodes of untreated animals. Draining lymph node cells (DLNC) were obtained from popliteal lymph nodes 8-10 days after immunization of rats with myelin basic protein (guinea pig MBP, kind gift from professor Alexander Fluegel, University of Goettingen, Germany) and complete Freund's adjuvant (CFA, Difco, Detroit, Mich.). The organs were mechanically disrupted, passed through 40-μm nylon mesh filter and the resulting suspension was collected by centrifugation. Red blood cells from single cell suspensions obtained from spleens were lysed using RBC Lysis Buffer (eBioscience, San Diego, Calif.). CD4+ cells were purified from SPC using biotin conjugated antibody specific for CD4 (eBioscience) and IMag SAv particles plus (BD Biosciences, San Diego, Calif.). Obtained purity of CD4 population was more than 97% as determined by flow cytometry. SPC and LNC were seeded at 5×10^6/ml/well, DLNC at 2.5×10^6/ml/well and CD4+ cells at 1×10^6/ml/well of 24-well plates. Cells infiltrating spinal cords (SC) were obtained from SC of rats immunized with MBP+CFA at the time when rats suffered from severe clinical signs of experimental autoimmune encephalomyelitis (EAE). Rats were perfused with sterile PBS, SC were homogenized, adjusted to 30% Percoll (Sigma-Aldrich) and overlaid on 70% Percoll gradient. Following centrifugation at 870 g for 50 min the SC cells (SCC) were recovered from the […] Percoll interface and washed in RPMI-1640 medium. SCC were seeded at 0.5×106/200 μl/well of 96-well plates. SPC and LNC were stimulated with 2.5 μg/ml concanavalin A (ConA, Sigma-Aldrich), DLNC with MBP (10 ng/ml), CD4+ cells with anti-CD3 and anti-CD28 antibody (1 μg/ml each, both from eBioscience) and SCC were left untreated.
Cytokine concentration in cell culture supernatants was determined by sandwich ELISA using MaxiSorp plates (Nunc, Rochild, Denmark) and anti-cytokine paired antibodies according to the manufacturer's instructions. Samples were analyzed in duplicate for murine/rat IL-17, murine IL-10, murine TNF, murine IL-4 (eBioscience), murine IFN-γ, rat IFN-γ, rat IL-4 (R&D, Minneapolis, Minn.), rat IL-10 and rat TNF (BD Biosciences). The results were calculated using standard curves made on the basis of known concentrations of the appropriate recombinant cytokines.
CD4+ cells were purified from C57BL/6 SPC and stimulated with anti-CD3 and anti-CD28 antibodies in the presence of various concentrations of Saq-NO for 24 hours. The influence of Saq-NO on cytokine generation was compared to its influence on CD4+ cell viability and to the influence of Saq on the same parameters. […] Thus, Saq-NO directly affects T cell cytokine production.

murine SPC = assay: Apoptosis in murine SPC, Annexin V-FITC staining and cytofluorimetry; format: cell-based, mouse
Text: as §1
The cells positive for Annexin V-FITC were considered apoptotic. The stained cells were acquired by a FACSCalibur cytometer (BD Biosciences) and analyzed using CellQuest Software (BD Biosciences).

[1] = tested on: melanoma, astrocytoma, prostate cancer cells and various human multidrug resistant tumor cell lines; settings: cited from earlier work
MOG-induced EAE = MOG-induced EAE in C57Bl6 mice; format: in vivo; settings: for Clinical course of the disease: day 7 to 30; for Disease after interruption of the late prophylactic treatment: observed for further 11 days
Text: Seven to 8 weeks-old male C57Bl6 mice and 6 to 7 weeks-old female SJL mice (Harlan Laboratories srl, San Pietro al Natisone, Udine, Italy) were used in the experiments. They were kept under standard laboratory conditions (non specific pathogen free) with free access to food (Harlan Global Diet 2018) and water and were allowed to adapt at least one week to their environment before commencing the study.
MOG35-55 was synthesized by Genemed synthesis (San Francisco Calif.). The mice were immunized with 200 μg MOG emulsified in CFA with 1 mg of Mycobacterium tuberculosis H37RA (Difco, Detroit, Mich., USA) to make a 1:1 emulsion. Each mouse received subcutaneous injections of 200 μl emulsion divided among two sites draining into the axillary lymph nodes. Pertussis toxin (Calbiochem, Nottingham, UK) was used as a coadjuvant and was administered i.p. at the dose of 200 ng/mouse on day 0 and 2 post immunization. The mice were observed every day by measuring their body weights and clinical signs of EAE until 30 days after immunization. These clinical grading were carried out by an observer unaware of the treatment: 0=no sign of disease; 0.5=partial tail paralysis; 1=tail paralysis; 1.5=tail paralysis+partial unilateral hindlimb paralysis; 2=tail paralysis+hindlimb weakness or partial hindlimb paralysis; 2.5=tail paralysis+partial hindlimb paralysis (lowered pelvi); 3=tail paralysis+complete hindlimb paralysis; 3.5=tail paralysis+complete hindlimb paralysis+incontinence; 4=tail paralysis+hindlimb paralysis+weakness or partial paralysis of forelimbs; 5=moribund or dead.
The study involved 4 groups of 10 animals each. All the groups were immunized with the MOG35-55 peptide in CFA and pertuxis toxin, according to the immunization procedure described above and assigned to the following treatments:
The late prophylactic treatment started on day 7 immunization and continued until day 30; the therapeutic regime started at the onset of the disease and continued for 23 consecutive days.

[2] = tested on: peripheral blood mononuclear cells; settings: concentrations between 5 and 20 mM; cited from earlier work
[3] = anti-CD3 and anti-CD28, 24 hours
[4] = late prophylactic treatment, 10 mg/Kg i.p. daily

Compound | Generation of IFN-g, IL-4 and IL-17 (murine CD4+ cells; CD4+ cells of C57BL/6 SPC, anti-CD3 and anti-CD28, 24 hours) | Influence on IL-10 (murine CD4+ cells; [3]) | TNF release (murine CD4+ cells; [3]) | % of AnnV+ cells (murine SPC; C 5 μg/ml) | % of AnnV+ cells (murine SPC; C 10 μg/ml) | % of AnnV+ cells (murine SPC; C 20 μg/ml) | Anti-cancer properties in comparison to Saq [1] | Cumulative score and duration of the disease compared to vehicle treated mice (MOG-induced EAE; full therapeutic regime, 10 mg/Kg i.p. daily from onset, 23 days) | Time after treatment interruption to reach the clinical score of vehicle treated mice (MOG-induced EAE; late prophylactic treatment interrupted) | Cumulative score and duration of the disease compared to vehicle treated mice (MOG-induced EAE; [4]) | Clinical course of the disease (MOG-induced EAE; [4]) | Disease after interruption of the late prophylactic treatment (MOG-induced EAE) | IL-17 secretion from purified CD4+ T cells at low concentrations (murine CD4+ cells; concentrations of 2.5 and 5 mM) | PHA or anti-CD3-induced proliferation [2]
CC(C)(C)NC(=O)C1C[C@@H]2CCCC[C@@H]2CN1CC(O[N+](=O)[O-])[C@H](Cc1ccccc1)NC(=O)C(CC(N)=O)NC(=O)c1ccc2ccccc2n1 (stereo partly drawn) [Saq-NO, nitric ester of Saquinavir] | more effectively than Saq | similarly potent | did not modulate | 30.2 +/− 7.5% | 38.4 +/− 4.8% | 44.5 +/− 11.5% | superior | significant reduction | ≤ 9 days | significantly lower | ameliorated | developed a strong disease | – | –
CC(C)(C)NC(=O)[C@@H]1C[C@@H]2CCCC[C@@H]2CN1C[C@@H](O)[C@H](Cc1ccccc1)NC(=O)[C@H](CC(N)=O)NC(=O)c1ccc2ccccc2n1 [Saq, (2S)—N-[(2S,3R)-4-[(3S)-3-(tert-butylcarbamoyl)-decahydroisoquinolin-2-iy]-3-hydroxy-1-phenylbutan-2-il]-2-(quinolin-2-ylformamido)butanediamide, reference compound] | – | similarly potent | did not modulate | 27.5 +/− 4.8% | 31.6 +/− 6.4% | 49.8 +/− 4.8* % | – | – | – | – | slightly reduced | maintained the same severity of the disease | inhibitory effect | inhibited
